Test results: patent US6921824B1, “Ruthenium dimeric complexes suitable as antimetastatic and antineoplastic agents” (priority 1999, dated 2005)

Experiment: Solubility in water (remark in preparation)
Format: physicochemical

Substance: [K]2[trans-RuCl4(Me2SO)]2(μ-pyz) [Example 6]
- Solubility in water: not very soluble in water
